System: Desulfovibrio spp.
Assay: In vitro fermentation of fibers with canine fecal inoculum, FISH enumeration
Type: cell-based
Conditions: 39° C.; for Numbers of Desulfovibrio spp., LOG10 CFU AT 8 HOUR: after 8 hour incubation
Procedure: Fermentation vessels containing anaerobic phosphate buffered medium were prepared and 1 ml canine fecal inoculum (10% w/v fecal sample to buffer) added. The composition of the media was as described in Sunvold G D, Hussein H S, Fahey G C, Merchen N R, and Reinhart G A (1995), In vitro fermentation of selected fiber sources by dogs fecal inoculum and in vivo digestion and metabolism of fiber supplemental diets. J. Animal Sci. 73:1099-1109 (1995). Fermentations were carried out at 39° C. Experiments were conducted in a blind-coded manner with different fibers. […] An aliquot of this was prepared for FISH. […] Genus specific 16SrRNA-targeted probes were synthesized and monolabelled at the 5″ end with fluorescent dye to detect bacteria of interest in the fermentation media. Total nucleic acid was stained to obtain total microbial counts.

| Substance | Numbers of Desulfovibrio spp., Log10 CFU AT 0 HOUR | Numbers of Desulfovibrio spp., LOG10 CFU AT 8 HOUR |
| --- | --- | --- |
| Galacto-oligosaccharide | 7.0 ± 1.0 log cfu/ml of fecal inoculum | 6.8 ± 0.9 log cfu/ml of fecal inoculum |
| Arabinogalactan | 7.5 ± 0.3 log cfu/ml of fecal inoculum | 6.4 ± 1.0 log cfu/ml of fecal inoculum |
| Fructooligosaccharide | 6.9 ± 1.0 log cfu/ml of fecal inoculum | 6.3 ± 0.8 log cfu/ml of fecal inoculum |
| Xylooligosaccharide | 7.2 ± 0.4 log cfu/ml of fecal inoculum | 6.8 ± 0.9 log cfu/ml of fecal inoculum |
| Inulin | 7.3 ± 0.2 log cfu/ml of fecal inoculum | 6.4 ± 1.0 log cfu/ml of fecal inoculum |
